The record followed here is EP4786486A1, “PEPTIDES FOR TREATING CARDIAC DISEASES” (Universidad Complutense De Madrid, priority 2023, dated 2025).

Test [1] relates to minimal promoter of the human KCNJ2 gene. The test can be described thus: Luciferase promoter assay in hEK-293 cells, KCNJ2. The conditions noted are these: hEK-293 cells co-transfected with cDNA SEQ ID NO: 5; 48 hours after transfection. The test is classed as cell-based. The procedure:
48 hours after transfection, luciferase assays were performed using the LightSwitch Luciferase Assay reagent, also from Active Motif, and a Berthold luminometer. All assays were performed in triplicate and each point represents the mean of each technical triplicate.

Test [2] has as its system dissociated cardiomyocytes from Sham and TAC mice. Nature of the test: INa density in dissociated cardiomyocytes, murine TAC model of HFrEF. The test is classed as in vivo. To be noted: pre-treatment with DECA-11 (AAV9). An excerpt:
A murine model of CI with reduced ejection fraction (HFrEF) was used to analyse the effect of SEQ ID NO: 3 on the decrease in INa and IK1 caused by electrical remodelling associated with Cl. The mice are subjected to transverse aortic constriction (TAC) with ligation, and pressure overload leads to the occurrence of cardiac hypertrophy and Cl. The mice were produced at the Medical Research Centre of the University of Navarra (CIMA), under the direction of Dr Aránzazu González Miqueo.
Eight-week-old mice were administered 3.5×10^10 particles of adeno-associated virus type 9 that encoded either the fluorescent reporter td-Tomato (Aav-dt-T) alone, or the reporter and the peptide DECA-11. At 12 weeks of age, an echocardiographic check-up (baseline) was performed and at week 13 they underwent surgery in which the aorta was ligated (TAC animals) or not (Sham animals).
That same week they were sent to the UCM animal facility. Next, the mice were heparinised and anaesthetised and then sacrificed by cervical dislocation, at a rate of one per day, and a thoracotomy was performed to remove the heart which was mounted through the aorta into a cannula connected to a Langendorff apparatus for enzymatic dissociation of the cardiac myocytes. […]

As to “RFTRESLAAIE (listed as Homo sapiens) [SEQ ID NO: 3, 11-amino acid peptide, amino acids 15-25 of human Nav1.5]”, the “effect on the minimal promoter of the human KCNJ2 gene (luciferase)” value in test [1] was “protranscriptional effect”. Besides, the “density of INa” value in test [2] (TAC cardiomyocytes) was “significantly and markedly increased”; in test [2] (cardiomyocytes from Sham animals), “increased”.
